Here are results for two compounds from patent US9795625B2, “Uridine and uridine analogues for treatment of specific lung diseases, namely COPD and pulmonary fibrosis” (Universitaetsklinikum Freiburg, priority 2011, dated 2017).

In data set [1] the test system is asthmatic airway inflammation. Conditions: OVA-alum model and HDM model in mice, local administration; cited from earlier work.
Data set [2] relates to murine model of chronic smoke exposure. Put plainly: Chronic exposure to cigarette smoke (pulmonary emphysema), lung morphometry. Format: in vivo, male C57BL/6 mice. Conditions: uridine 0.6 mg/kg oral gavage 45 min prior to smoke exposure vs non-uridine treated mice (FIG. 2). The text has this:
The methodology for chronic smoke exposure has been previously described (Cavarra E et al., Human SLPI inactivation after cigarette smoke exposure in a new in vivo model of pulmonary oxidative stress, Am J Physiol Lung Cell Mol Physiol. 2001 August; 281(2):L412-7 Cicko S et al., Purinergic receptor inhibition prevents the development of smoke-induced lung injury and emphysema, J Immunol. 2010 Jul. 1; 185(1):688-97)). Briefly, male C57BL/6 mice were exposed to either the smoke of 3 cigarettes per day (commercial Virginia filter cigarettes: 12 mg of tar and 0.9 mg of nicotine), 5 days per week or to room air (controls) for 4 or 7 months, respectively.
When indicated, animals received an oral treatment by gavage with Uridine (0.6 mg/kg) 45 min prior to smoke exposure.
At the end of the respective time period, animals were sacrificed; BAL was performed followed by lung resection. […] Lung volume was measured by water displacement. […]
This Lm value was used to calculate the ISA (which represent the gas exchange surface), necessary for evaluating the degree of emphysema, from the equation 4V/Lm, where V is the postfixation lung volume. For the determination of the Lm for each pair of lungs, 40 histological fields were evaluated both vertically and horizontally.
Statistical significance of differences between samples was calculated using ANOVA, followed by Bonferroni comparison test. […]

The next data set deals with smoke exposed mice. Put plainly: Acute cigarette smoke exposure, i.t. uridine, BAL fluid analysis. It is filed as in vivo, Male C57BL/6 mice. The procedure:
Male C57BL/6 mice were exposed to whole smoke of five cigarettes (commercial Virginia filter cigarettes: 12 mg of tar and 0.9 mg of nicotine) or room air for 20 min on three consecutive days in especially designed macrolon cages (Tecniplast, Buguggiate, Italy), as previously described (Cavarra E et al., Human SLPI inactivation after cigarette smoke exposure in a new in vivo model of pulmonary oxidative stress, Am J Physiol Lung Cell Mol Physiol. 2001 August; 281(2):L412-7, Cicko S et al., Purinergic receptor inhibition prevents the development of smoke-induced lung injury and emphysema, J Immunol. 2010 Jul. 1; 185(1):688-97). The smoke was produced by the burning of a cigarette and was introduced into the chamber with the airflow generated by a mechanical ventilator (7025 Rodent Ventilator, Ugo Basile, Biological Research Instruments, Comerio, Italy), at a rate of 250 ml/min. A second mechanical ventilator was used to provide room air for dilution (1:8) of the smoke-stream.
In some experiments, intratracheal treatment (i.t.) was performed prior to each smoke exposure: animals were anaesthetized by intraperitoneal injection of Ketamin/Xylazin and received an i.t. injection of uridine in a total volume of 80 μl (1 mM or 10 mM) or PBS which was used as vehicle. One hour after the last smoke challenge, mice were sacrificed and bronchoalveolar lavage (BAL) was performed.
BAL fluid was collected by cannulating the trachea under deep pentobarbital anesthesia and washing the lung three times with 1 ml PBS containing 0.1 mM EDTA, as previously described (Idzko M et al., Extracellular ATP triggers and maintains asthmatic airway inflammation by activating dendritic cells, Nat Med. 2007 Aug.; 13(8):913-9, Cicko S et al., Purinergic receptor inhibition prevents the development of smoke-induced lung injury and emphysema, J Immunol. 2010 Jul. 1; 185(1):688-97). Total cell numbers were counted and differential cell counts were performed on cytospin preparations after staining with Diff-Quick (Medion Diagnostics, Dudingen, Switzerland). Differential cell counts were made on >200 cells using standard morphological criteria and FACS-analysis.
After counting and washing, BAL cells were stained for 30 min with anti-MHC class II (macrophages/DC), anti-7/4 (Caltag) FITC (neutrophiles; Abd-Serotec, Düsseldorf, Germany), anti-CD3 and anti-CD19 cy-chrome (lymphocytes), and anti-CD 11c APC macrophages/DCs (eBioscience, San Diego, Calif.) in PBS containing 0.5% BSA and 0.01% sodium azide. Differential cell counts were analyzed by flow cytometry, as described previously (Idzko M et al., Extracellular ATP triggers and maintains asthmatic airway inflammation by activating dendritic cells, Nat Med. 2007 Aug.; 13(8):913-9 and Cicko S et al., Purinergic receptor inhibition prevents the development of smoke-induced lung injury and emphysema, J Immunol. 2010 Jul. 1; 185(1):688-97).
To measure ATP concentrations in BALF in mice, fresh BALF supernatants were used, according to manufacturer's instructions (ATPlite Assay, PerkinElmer, Wellesley Mass.), but without the cell lysis step to avoid any contaminating intracellular ATP, as described previously (Idzko M et al., Extracellular ATP triggers and maintains asthmatic airway inflammation by activating dendritic cells, Nat Med. 2007 Aug.; 13(8):913-9 Cicko S et al., Purinergic receptor inhibition prevents the development of smoke-induced lung injury and emphysema, J Immunol. 2010 Jul. 1; 185(1):688-97)).
(§1) Cytokine concentrations in BALF were measured using commercially available ELISA kits (R&D Systems, Minneapolis, Minn.) according to the manufacturer's recommendations.
(§2) Statistical significance of differences between samples was calculated using ANOVA, followed by Bonferroni comparison test. Difference were considered significant if p<0.05.

Data set [3] concerns mitochondrial toxicity caused by highly active antiretroviral therapy (HAART). Conditions: cited from earlier work.
In data set [4] the test system is BLM-induced pulmonary fibrosis. The experiment in a line: Mouse model of bleomycin (BLM) induced pulmonary fibrosis. Format: in vivo, male C57/B16 mice. The procedure:
The induction of BLM induced pulmonary fibrosis was performed as previously described (Gasse P, Mary C, Guenon I, Noulin N, Charron S, Schnyder-Candrian S, Schnyder B, Akira S, Quesniaux V F, Lagente V, et al. II-1r1/myd88 signaling and the inflammasome are essential in pulmonary inflammation and fibrosis in mice. J Clin Invest 2007; 117(12):3786-3799). Then, male C57/B16 animals were treated with the uridine p.o. (200 μl 10 mM) or vehicle 14 days after BLM-instillation for 3 days a week. At day 30 animals were examined for the typical features of BLM-induced lung injury. Therefore BALF was collected and differential cell count was analyzed as described above.
as §1
The amount of lung collagen was measured in the lung tissue using the Sircol-assay according to the manufacturer's recommendations (Biocolor, Life-Science, UK).
as §2

For data set [5], the system named is sephadex-induced acute lung inflammation. As to conditions: sephadex-induced acute lung inflammation model; cited from earlier work.
The mark [6] stands for this setting: BALF, uridine i.t. 1 mM or 10 mM.
[7] abbreviates: BALF, uridine p.o. 200 μl 10 mM, day 30.
Setting [8] is: uridine p.o. 200 μl 10 mM, day 30.

In the case of `O=c1ccn([C@@H]2O[C@H](CO)[C@@H](O)[C@H]2O)c(=O)[nH]1` [uridine], the asthmatic airway inflammation result in data set [1] was “suppress”. Moreover, in data set [2], the “internal surface area of the lung” value is recorded as “higher” and the mean linear intercept result is given as “significantly lower”. In the data set on smoke exposed mice (setting [6]), the “level of IFN-γ” value was “dose dependently reduced”, the “level of IL-1β” value is “dose dependently reduced”, the “level of IL-6” value is “dose dependently reduced” and the “level of KC” value is recorded as “dose dependently reduced”. In the data set with smoke exposed mice (setting [6]), the “level of MIP-2” value was “dose dependently reduced”, the number of macrophages entry is “dose dependently reduced” and the number of neutrophils entry is on record as “dose dependently reduced”. In addition, the “amount of extracellular ATP in BALF” value in the data set with smoke exposed mice (uridine i.t. 80 μl 1 mM or 10 mM vs non uridine treated mice (FIG. 1b)) is listed as “significantly be reduced in a dose dependent manner”. The “efficacy in reduction of mitochondrial toxicity” value in data set [3] (human, HAART) is recorded as “efficacious”. The safety entry in data set [3] (in vivo) was “safe”. Further, in data set [4] (setting [7]), the IL-1 beta entry is “down-regulation”, the IL-6 result is on record as “down-regulation”, the KC result was “down-regulation” and the TNFalpha result is “down-regulation”. Besides, the BLM-induced pulmonary fibrosis result in data set [4] (uridine p.o 3×/week from day 14, day 30 (FIG. 3)) is “decreases”. Further, the “amount of collagen in the lung” value in data set [4] (uridine p.o. 200 μl 10 mM 3 days a week from day 14, day 30) is on record as “significantly reduce”. The TIMP-1 entry in data set [4] (uridine p.o. 200 μl 10 mM, after bleomycin instillation (FIG. 3)) is reported as “reduced to normal levels”. In data set [4] (setting [8]), the “lymphocytes in BALF” value is “down-regulation”, the “macrophages in BALF” value is “down-regulation” and the “neutrophils in BALF” value is “down-regulation”.

As for `O=c1[nH]c(=S)ccn1[C@@H]1O[C@H](CO)[C@@H](O)[C@H]1O` [4-thiouridine], the anti-inflammatory effects entry in data set [5] is recorded as “anti-inflammatory effects similar to those of uridine”.
